Assay type in all cases: functional
Holding throughout (settings): read-out: LC50 (the source's name)

The test system of one assay is T98G. Put plainly: Compound was evaluated for cytotoxicity against human glioblastoma (T98G) cell line.
For another assay, the system named is D283 Med. Put plainly: Compound was evaluated for cytotoxicity against human medulloblastoma (D283 Med) cell line.
The next assay concerns A 172. Put plainly: Compound was evaluated for cytotoxicity against human glioblastoma (A172) cell line.

As for `CC1(C)c2ccccc2N[C@@H]2[C@@H]3Cc4ccccc4CN3CC[C@@H]21`, the CC50 came out at 14 µM with T98G, 22 µM in the assay with D283 Med and 45 µM in the assay with A 172.

As for `C=C(C)[C@H]1CCN2Cc3ccccc3C[C@H]2[C@H]1NCc1ccc(Cl)cc1`, the CC50 in the assay with T98G was determined as 42 µM; in the assay on D283 Med, 29 µM; in the assay on A 172 it was 55 µM.

Turning to `CC1(C)c2cc(Cl)ccc2N[C@@H]2[C@@H]3Cc4ccccc4CN3CC[C@@H]21`, the CC50 was 12 µM in the assay with T98G, 8 µM in the assay on D283 Med and 22 µM with A 172.

As to `Cc1cccc2c1N[C@@H]1[C@@H]3Cc4ccccc4CN3CC[C@@H]1C2(C)C`, the figures for the CC50 in the assay with T98G, in the assay on D283 Med and in the assay on A 172 were 21 µM, 20 µM and 31 µM, respectively.

`COc1ccc2c(c1)C(C)(C)[C@H]1CCN3Cc4ccccc4C[C@H]3[C@H]1N2`: the CC50 in the assay with T98G was 35 µM; with D283 Med, 25 µM; with A 172 it was 42 µM.

In the case of `Cc1ccc2c(c1)C(C)(C)[C@H]1CCN3Cc4ccccc4C[C@H]3[C@H]1N2`, the CC50 in the assay on T98G worked out at 20 µM; in the assay with D283 Med, 20 µM; in the assay on A 172, 25 µM.

As to `CC1(C)c2cc(C(F)(F)F)ccc2N[C@@H]2[C@@H]3Cc4ccccc4CN3CC[C@@H]21`, the values for the CC50 with T98G, in the assay with D283 Med and with A 172 were 13 µM, 17 µM and 20 µM, respectively.

The values above are taken from ChEMBL document CHEMBL1131267, “Diastereoselective synthesis of octahydro-14H-benzo[g]quinolino-[2,3-a]quinolidines. Improved cytotoxic activity against human brain tumor cell lines as a result of the increased rigidity of the molecular backbone” (1998).
